Assay results published in patent US20260285850A1, “SUBSTITUTED OXAZOLIDINONES AND IMIDAZOLINONES AS HERBICIDES” (FMC CORPORATION, priority 2023, published 2026).

Experiments:
Assay type in all cases: in vivo
[1] = system: rice (Oryza sativa); experiment: Test B flooded paddy test, visual plant response rating 0-100; details: 250 g ai/ha, Flood, applied to paddy water, evaluated after 13 days
Outline: (§1)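 Visual scores versus untreated controls were recorded 13 days after treatment of greenhouse-held plants. At the 2-leaf stage, pots were flooded 3 cm above the soil surface and compounds added straight to the water.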

[2] = system: barnyardgrass (Echinochloa crusgalli); experiment: as above; details: 250 g ai/ha, Flood, applied to paddy water, evaluated after 13 days
Outline: as §1

[3] = system: sedge, umbrella (small-flower umbrella sedge, Cyperus difformis); experiment: as above; details: 250 g ai/ha, Flood, applied to paddy water, evaluated after 13 days
Outline: as §1

[4] = system: ducksalad (Heteranthera limosa); experiment: as above; details: 250 g ai/ha, Flood, applied to paddy water, evaluated after 13 days
Outline: as §1

[5] = system: ragweed (common ragweed, Ambrosia artemisiifolia); experiment: Test A preemergence soil spray, visual injury rating 0-100; details: 10 days
Outline: (§2)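 Loam-sand pots got test material in surfactant-containing solvent, either as a directed soil spray before emergence or on plants at the one- to two-leaf stage. Visual injury (0-100) was read after ten greenhouse days.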

[6] = system: blackgrass (Alopecurus myosuroides); experiment: as above; details: 10 days
Outline: as §2

[7] = system: wheat (Triticum aestivum); experiment: as above; details: 10 days
Outline: as §2

[8] = system: ryegrass, Italian (italian ryegrass, Lolium multiflorum); experiment: as above; details: 10 days
Outline: as §2

[9] = system: barnyardgrass (Echinochloa crus-galli); experiment: as above; details: 10 days
Outline: as §2

[10] = system: soybean (Glycine max); experiment: as above; details: 10 days
Outline: as §2

[11] = system: corn (Zea mays); experiment: as above; details: 10 days
Outline: as §2

[12] = system: kochia (Bassia scoparia); experiment: as above; details: 10 days
Outline: as §2

[13] = system: green foxtail (Setaria viridis); experiment: as above; details: 10 days
Outline: as §2

[14] = system: oat, wild (wild oat, Avena fatua); experiment: as above; details: 10 days
Outline: as §2

[15] = system: palmer (palmer amaranth, palmer pigweed, Amaranthus palmeri); experiment: as above; details: 10 days
Outline: as §2

[16] = system: ragweed (common ragweed, Ambrosia artemisiifolia); experiment: Test A postemergence application, visual injury rating 0-100
Outline: as §2

[17] = system: horseweed (Erigeron canadensis); experiment: as above
Outline: as §2

[18] = system: galium (catchweed bedstraw, Galium aparine); experiment: as above
Outline: as §2

[19] = system: blackgrass (Alopecurus myosuroides); experiment: as above
Outline: as §2

[20] = system: wheat (Triticum aestivum); experiment: as above
Outline: as §2

[21] = system: ryegrass, Italian (italian ryegrass, Lolium multiflorum); experiment: as above
Outline: as §2

[22] = system: barnyardgrass (Echinochloa crus-galli); experiment: as above
Outline: as §2

[23] = system: soybean (Glycine max); experiment: as above
Outline: as §2

[24] = system: corn (Zea mays); experiment: as above
Outline: as §2

[25] = system: kochia (Bassia scoparia); experiment: as above
Outline: as §2

[26] = system: green foxtail (Setaria viridis); experiment: as above
Outline: as §2

[27] = system: oat, wild (wild oat, Avena fatua); experiment: as above
Outline: as §2

[28] = system: palmer (palmer amaranth, palmer pigweed, Amaranthus palmeri); experiment: as above
Outline: as §2

[29] = 62 g ai/ha, 0 = no effect, 100 = complete control
[30] = 62 g ai/ha, postemergence, 10 days, 0 = no effect, 100 = complete control
[31] = Postemergence, 16 g ai/ha, greenhouse 10 days, 0 no effect, 100 complete control

C=CC1(C(=O)NC2C=CC(C(=O)OC)C2)CN(c2cc(F)cc(F)c2)C(=O)O1 (single isomer, unassigned) [Compound 168]
Plant response rating, Rice (0 to 100 scale, 0 is no effect and 100 is complete control) [1]: 0 | Plant response rating, Barnyardgrass (0 to 100 scale, 0 is no effect and 100 is complete control) [2]: 0 | Plant response rating, Sedge, Umbrella (0 to 100 scale, 0 is no effect and 100 is complete control) [3]: 0 | Plant response rating, Ducksalad (0 to 100 scale, 0 is no effect and 100 is complete control) [4]: 0 | Ragweed plant response rating ([5]; 16 g ai/ha, 0 to 100 scale): 0 | Ragweed plant response rating (0-100) [5, 29]: 0 | Blackgrass plant response rating ([6]; 16 g ai/ha, 0 to 100 scale): 0 | Blackgrass plant response rating (0-100) [6, 29]: 0 | Wheat plant response rating ([7]; 16 g ai/ha, 0 to 100 scale): 0 | Wheat plant response rating (0-100) [7, 29]: 0 | Ryegrass, Italian plant response rating ([8]; 16 g ai/ha, 0 to 100 scale): 0 | Ryegrass, Italian plant response rating (0-100) [8, 29]: 0 | Barnyardgrass plant response rating ([9]; 16 g ai/ha, 0 to 100 scale): 0 | Barnyardgrass plant response rating (0-100) [9, 29]: 0 | Soybean plant response rating ([10]; 16 g ai/ha, 0 to 100 scale): 0 | Soybean plant response rating (0-100) [10, 29]: 0 | Corn plant response rating ([11]; 16 g ai/ha, 0 to 100 scale): 0 | Corn plant response rating (0-100) [11, 29]: 0 | Kochia plant response rating ([12]; 16 g ai/ha, 0 to 100 scale): 0 | Kochia plant response rating (0-100) [12, 29]: 0 | Foxtail, Green plant response rating ([13]; 16 g ai/ha, 0 to 100 scale): 0 | Foxtail, Green plant response rating (0-100) [13, 29]: 0 | Oat, Wild plant response rating ([14]; 16 g ai/ha, 0 to 100 scale): 0 | Oat, Wild plant response rating (0-100) [14, 29]: 0 | Pigweed, Palmer plant response rating ([15]; 16 g ai/ha, 0 to 100 scale): 0 | Pigweed, Palmer plant response rating (0-100) [15, 29]: 0 | Ragweed plant response rating (0-100) [16, 30]: 0 | Ragweed plant response rating (0 to 100 scale) [16, 31]: 0 | Horseweed plant response rating (0-100) [17, 30]: 0 | Horseweed plant response rating (0 to 100 scale) [17, 31]: 0 | Galium plant response rating (0-100) [18, 30]: 0 | Galium plant response rating (0 to 100 scale) [18, 31]: 0 | Blackgrass plant response rating (0-100) [19, 30]: 0 | Blackgrass plant response rating (0 to 100 scale) [19, 31]: 0 | Wheat plant response rating (0-100) [20, 30]: 0 | Wheat plant response rating (0 to 100 scale) [20, 31]: 0 | Ryegrass, Italian plant response rating (0-100) [21, 30]: 0 | Ryegrass, Italian plant response rating (0 to 100 scale) [21, 31]: 0 | Barnyardgrass plant response rating (0-100) [22, 30]: 20 | Barnyardgrass plant response rating (0 to 100 scale) [22, 31]: 10 | Soybean plant response rating (0-100) [23, 30]: 0 | Soybean plant response rating (0 to 100 scale) [23, 31]: 0 | Corn plant response rating (0-100) [24, 30]: 10 | Corn plant response rating (0 to 100 scale) [24, 31]: 0 | Kochia plant response rating (0-100) [25, 30]: 0 | Kochia plant response rating (0 to 100 scale) [25, 31]: 0 | Foxtail, Green plant response rating (0-100) [26, 30]: 0 | Foxtail, Green plant response rating (0 to 100 scale) [26, 31]: 0 | Oat, Wild plant response rating (0-100) [27, 30]: 0 | Oat, Wild plant response rating (0 to 100 scale) [27, 31]: 0 | Pigweed, Palmer plant response rating (0-100) [28, 30]: 0 | Pigweed, Palmer plant response rating (0 to 100 scale) [28, 31]: 0
